From article PMC4138103 (PLoS ONE, 2014)
Where two headings read alike, the source gives them in different places.

Test system: Sprague-Dawley rats
Test: Clinical chemistry
Assay type: in vivo, Rattus norvegicus
Parameters: key to Cholesterol, Dose response / Triglyserides, Dose response / Glucose, Dose response / Albumin, Dose response / K, Dose response / Total bilirubin, Dose response: D: significant dose response (for results, see Table 2); T: significant trend
Conditions: for CED, Glucose / CED, Potassium / CED-L, Glucose / CED-L, Potassium / CED, Alkaline phosphatase / CED, Chlolesterol / CED, Total Bilirubin / CED-L, Alkaline phosphatase / CED-L, Chlolesterol / CED-L, Total Bilirubin / CED, Albumin / CED-L, Albumin / CED, Total protein / CED, Triglycerides / CED-L, Total protein / CED-L, Triglycerides: adipose tissue concentration based; for Emax: Rattus norvegicus
Procedure: Spectrophotometric methods were used for the determination of serum total calcium, cholesterol, creatinine, glucose, triglycerides and urea. Serum sodium, potassium and chloride concentrations were measured directly by ion selective electrodes. The analyses were performed by a clinical chemistry analyzer (Konelab 30i, ThermoFisher Scientific, Vantaa, Finland). Plasma lactate dehydrogenase (LD) activity was measured according to the recommendations of the International Federation of Clinical Chemistry (IFCC 1994/I) using Konelab 60i clinical chemistry analyzer. Methods and results for liver related parameters (serum alanine aminotransferase [ALT] activity, alkaline phosphatase [ALP] activity, albumin, total protein and total bilirubin are reported separately.
Data were also analyzed using the BMD method, which is based on dose-response modeling of the full data set using a nested family of exponential and Hill models. The analyses were done on data of males and females combined, using sex as a covariate. […] In that case, different Critical Effect Doses (CEDs) and CEDs at the lowest bound of the confidence interval (CED-L) were generated for each sex. If no difference between sexes is detected, a CED and CED-Ls for the combined data is generated. However, this was also done if the curve fits are close, and separate analyses for males and females were then performed manually. CEDs and CED-Ls were calculated at the predefined Critical Effect Size (CES) of 5% (EFSA standard) or 10%.

[1] = females, total dose 0-1700 mg/kg bw
[2] = females, total dose 10 mg/kg bw
[3] = females, total dose 30 mg/kg bw
[4] = females, total dose 100 mg/kg bw
[5] = females, total dose 300 mg/kg bw
[6] = females, total dose 1000 mg/kg bw
[7] = females, total dose 1700 mg/kg bw

Q: What does the source list for `Clc1cc(Cl)c(-c2cc(Cl)c(Cl)c(Cl)c2Cl)cc1Cl` [PCB 180, 2,2′,3′,4,4′,5,5′-heptachlorobiphenyl]?
A: CED, Glucose (F, CES 5%, model E2): 4450 µg/g lipid; CED, Potassium (F, CES 5%, model E2): 7900 µg/g lipid; CED-L, Glucose (F, CES 5%, model E2): 2648 µg/g lipid; CED-L, Potassium (F, CES 5%, model E2): 5086 µg/g lipid; CED, Alkaline phosphatase (F, CES 5%, model E4): 308 µg/g lipid; CED, Chlolesterol (F, CES 5%, model E4): 640 µg/g lipid; CED, Total Bilirubin (F, CES 5%, model E4): 19.4 µg/g lipid; CED-L, Alkaline phosphatase (F, CES 5%, model E4): 136 µg/g lipid; CED-L, Chlolesterol (F, CES 5%, model E4): 387 µg/g lipid; CED-L, Total Bilirubin (F, CES 5%, model E4): 3.77 µg/g lipid; CED, Glucose (F, CES 10%, model E2): 9140 µg/g lipid; CED, Potassium (F, CES 10%, model E2): 16200 µg/g lipid; CED-L, Glucose (F, CES 10%, model E2): 5440 µg/g lipid; CED-L, Potassium (F, CES 10%, model E2): 10450 µg/g lipid; CED, Alkaline phosphatase (F, CES 10%, model E4): 701 µg/g lipid; CED, Chlolesterol (F, CES 10%, model E4): 1330 µg/g lipid; CED, Total Bilirubin (F, CES 10%, model E4): 48.2 µg/g lipid; CED-L, Alkaline phosphatase (F, CES 10%, model E4): 309 µg/g lipid; CED-L, Chlolesterol (F, CES 10%, model E4): 813 µg/g lipid; CED-L, Total Bilirubin (F, CES 10%, model E4): 8.98 µg/g lipid; CED, Albumin (M, CES 5%, model E2): 6750 µg/g lipid; CED, Alkaline phosphatase (M, CES 5%, model E2): 2300 µg/g lipid; CED, Glucose (M, CES 5%, model E2): 866 µg/g lipid; CED-L, Albumin (M, CES 5%, model E2): 4696 µg/g lipid; CED-L, Alkaline phosphatase (M, CES 5%, model E2): 1393 µg/g lipid; CED-L, Glucose (M, CES 5%, model E2): 632 µg/g lipid; CED, Chlolesterol (M, CES 5%, model E4): 177 µg/g lipid; CED, Total protein (M, CES 5%, model E4): 1080 µg/g lipid; CED, Triglycerides (M, CES 5%, model E4): 12.5 µg/g lipid; CED-L, Chlolesterol (M, CES 5%, model E4): 91.4 µg/g lipid; CED-L, Total protein (M, CES 5%, model E4): 575 µg/g lipid; CED-L, Triglycerides (M, CES 5%, model E4): 7.26 µg/g lipid; CED, Albumin (M, CES 10%, model E2): 13200 µg/g lipid; CED, Alkaline phosphatase (M, CES 10%, model E2): 4730 µg/g lipid; CED, Glucose (M, CES 10%, model E2): 1780 µg/g lipid; CED-L, Albumin (M, CES 10%, model E2): 9174 µg/g lipid; CED-L, Alkaline phosphatase (M, CES 10%, model E2): 2861 µg/g lipid; CED-L, Glucose (M, CES 10%, model E2): 1297 µg/g lipid; CED, Chlolesterol (M, CES 10%, model E4): 365 µg/g lipid; CED, Total protein (M, CES 10%, model E4): 2970 µg/g lipid; CED, Triglycerides (M, CES 10%, model E4): 26.2 µg/g lipid; CED-L, Chlolesterol (M, CES 10%, model E4): 189 µg/g lipid; CED-L, Total protein (M, CES 10%, model E4): 1629 µg/g lipid; CED-L, Triglycerides (M, CES 10%, model E4): 15.2 µg/g lipid; Emax (F, model E2, controls vs high dose according to the fitted model, read-out: Maximum response, Glucose): -12.2%; Emax (F, model E2, controls vs high dose according to the fitted model, read-out: Maximum response, Potassium): -7.07%; Emax (F, model E4, controls vs high dose according to the fitted model, read-out: Maximum response, Alkaline phosphatase): -25.7%; Emax (F, model E4, controls vs high dose according to the fitted model, read-out: Maximum response, Chlolesterol): 53.8%; Emax (F, model E4, controls vs high dose according to the fitted model, read-out: Maximum response, Total Bilirubin): -18.2%; Emax (females, controls vs high dose, fitted model, read-out: Alkaline phosphatase, Maximum response): -25.7%; Emax (females, controls vs high dose, fitted model, read-out: Chlolesterol, Maximum response): 54.1%; Emax (females, controls vs high dose, fitted model, read-out: Glucose, Maximum response): -12.1%; Emax (females, controls vs high dose, fitted model, read-out: Potassium, Maximum response): -7%; Emax (females, controls vs high dose, fitted model, read-out: Total Bilirubin, Maximum response): -17.9%; Emax (males, controls vs high dose, fitted model, read-out: Albumin, Maximum response): 5.5%; Emax (males, controls vs high dose, fitted model, read-out: Alkaline phosphatase, Maximum response): -14.9%; Emax (males, controls vs high dose, fitted model, read-out: Chlolesterol, Maximum response): 80.8%; Emax (males, controls vs high dose, fitted model, read-out: Glucose, Maximum response): -35.6%; Emax (males, controls vs high dose, fitted model, read-out: Total protein, Maximum response): 14.1%; Emax (males, controls vs high dose, fitted model, read-out: Triglycerides, Maximum response): -62.2%; Emax (model E2, controls vs high dose according to the fitted model, read-out: Maximum response, Albumin): 5.49%; Emax (model E2, controls vs high dose according to the fitted model, read-out: Maximum response, Alkaline phosphatase): -15.4%; Emax (model E2, controls vs high dose according to the fitted model, read-out: Maximum response, Glucose): -35.4%; Emax (model E4, controls vs high dose according to the fitted model, read-out: Maximum response, Chlolesterol): 81.7%; Emax (model E4, controls vs high dose according to the fitted model, read-out: Maximum response, Total protein): 14.2%; Emax (model E4, controls vs high dose according to the fitted model, read-out: Maximum response, Triglycerides): -62.5%; Cholesterol, Dose response [1]: T; Glucose, Dose response [1]: T; K, Dose response [1]: T; Total bilirubin, Dose response [1]: T; Albumin (females, total dose 3 mg/kg bw): 33.8 g/L; Cholesterol (females, total dose 3 mg/kg bw): 3.11 mmol/L; Cl (females, total dose 3 mg/kg bw): 97.1 mmol/L; Creatinine (females, total dose 3 mg/kg bw): 51.7 µmol/L; Glucose (females, total dose 3 mg/kg bw): 13.7 mmol/L; K (females, total dose 3 mg/kg bw): 5.59 mmol/L; Na (females, total dose 3 mg/kg bw): 142.1 mmol/L; Total Ca (females, total dose 3 mg/kg bw): 3.40 mmol/L; Total bilirubin (females, total dose 3 mg/kg bw): 1.59 µmol/L; Triglyserides (females, total dose 3 mg/kg bw): 0.91 mmol/L; Urea (females, total dose 3 mg/kg bw): 9.9 mmol/L; Albumin [2]: 33.9 g/L; Cholesterol [2]: 3.35 mmol/L; Cl [2]: 97.2 mmol/L; Creatinine [2]: 53.8 µmol/L; Glucose [2]: 14.4 mmol/L; K [2]: 5.70 mmol/L; Na [2]: 143.6 mmol/L; Total Ca [2]: 3.42 mmol/L; Total bilirubin [2]: 1.66 µmol/L; Triglyserides [2]: 0.85 mmol/L; Urea [2]: 9.4 mmol/L; Albumin [3]: 32.7 g/L; Cholesterol [3]: 3.05 mmol/L; Cl [3]: 97.3 mmol/L; Creatinine [3]: 48.6 µmol/L; Glucose [3]: 13.6 mmol/L; K [3]: 5.55 mmol/L; Na [3]: 142.7 mmol/L; Total Ca [3]: 3.46 mmol/L; Total bilirubin [3]: 1.40 µmol/L; Triglyserides [3]: 1.19 mmol/L; Urea [3]: 9.5 mmol/L; Albumin [4]: 33.1 g/L; Cholesterol [4]: 3.54 mmol/L; Cl [4]: 97.0 mmol/L; Creatinine [4]: 51.3 µmol/L; Glucose [4]: 13.8 mmol/L; K [4]: 5.75 mmol/L; Na [4]: 142.5 mmol/L; Total Ca [4]: 3.44 mmol/L; Total bilirubin [4]: 1.56 µmol/L; Triglyserides [4]: 0.89 mmol/L; Urea [4]: 8.6 mmol/L; Albumin [5]: 33.5 g/L; Cholesterol [5]: 3.52 mmol/L; Cl [5]: 96.8 mmol/L; Creatinine [5]: 47.8 µmol/L; Glucose [5]: 14.0 mmol/L; K [5]: 5.54 mmol/L; Na [5]: 142.6 mmol/L; Total Ca [5]: 3.56 mmol/L; Total bilirubin [5]: 1.40 µmol/L; Triglyserides [5]: 1.12 mmol/L; Urea [5]: 10.1 mmol/L; Albumin [6]: 33.0 g/L; Cholesterol [6]: 4.16 mmol/L; Cl [6]: 97.2 mmol/L; Creatinine [6]: 51.9 µmol/L; Glucose [6]: 12.6 mmol/L; K [6]: 5.43 mmol/L; Na [6]: 142.7 mmol/L; Total Ca [6]: 3.40 mmol/L; Total bilirubin [6]: 1.43 µmol/L; Triglyserides [6]: 0.89 mmol/L; Urea [6]: 9.3 mmol/L; Albumin [7]: 33.3 g/L; Cholesterol [7]: 4.94 mmol/L; Cl [7]: 97.7 mmol/L
